The source of these data is ChEMBL document CHEMBL1153774, “Chemical constituents from the aerial parts of Artemisia minor” (J Nat Prod, 2009).

Each structure is given as a SMILES string.

The target in experiment [1] is Xanthine dehydrogenase/oxidase (Homo sapiens, UniProt P47989). Nature of the experiment: Inhibition of XOD.
Experiment [2] deals with T1, Tyrosine-protein phosphatase non-receptor type 1 (Homo sapiens, UniProt P18031).
T1 sequence (P18031 whole entry): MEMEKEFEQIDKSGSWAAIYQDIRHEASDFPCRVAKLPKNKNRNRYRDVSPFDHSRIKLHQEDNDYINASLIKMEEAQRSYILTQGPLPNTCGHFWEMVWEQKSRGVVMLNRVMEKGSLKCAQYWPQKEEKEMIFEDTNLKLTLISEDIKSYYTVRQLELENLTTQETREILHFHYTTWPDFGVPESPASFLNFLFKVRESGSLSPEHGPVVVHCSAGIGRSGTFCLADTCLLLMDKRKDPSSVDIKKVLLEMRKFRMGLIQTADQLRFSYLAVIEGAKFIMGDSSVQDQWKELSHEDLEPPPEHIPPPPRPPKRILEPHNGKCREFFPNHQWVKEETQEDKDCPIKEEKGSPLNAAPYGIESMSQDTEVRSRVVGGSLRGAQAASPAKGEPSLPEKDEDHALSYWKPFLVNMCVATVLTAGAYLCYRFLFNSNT
Briefly: Inhibition of human recombinant PTP1B after 10 mins.

Another experiment relates to HepG2. Nature of the experiment: Cytotoxicity against human HepG2 cells by SRB assay. The experiment is classed as functional.

Xanthine dehydrogenase/oxidase, sequence (P47989 whole entry): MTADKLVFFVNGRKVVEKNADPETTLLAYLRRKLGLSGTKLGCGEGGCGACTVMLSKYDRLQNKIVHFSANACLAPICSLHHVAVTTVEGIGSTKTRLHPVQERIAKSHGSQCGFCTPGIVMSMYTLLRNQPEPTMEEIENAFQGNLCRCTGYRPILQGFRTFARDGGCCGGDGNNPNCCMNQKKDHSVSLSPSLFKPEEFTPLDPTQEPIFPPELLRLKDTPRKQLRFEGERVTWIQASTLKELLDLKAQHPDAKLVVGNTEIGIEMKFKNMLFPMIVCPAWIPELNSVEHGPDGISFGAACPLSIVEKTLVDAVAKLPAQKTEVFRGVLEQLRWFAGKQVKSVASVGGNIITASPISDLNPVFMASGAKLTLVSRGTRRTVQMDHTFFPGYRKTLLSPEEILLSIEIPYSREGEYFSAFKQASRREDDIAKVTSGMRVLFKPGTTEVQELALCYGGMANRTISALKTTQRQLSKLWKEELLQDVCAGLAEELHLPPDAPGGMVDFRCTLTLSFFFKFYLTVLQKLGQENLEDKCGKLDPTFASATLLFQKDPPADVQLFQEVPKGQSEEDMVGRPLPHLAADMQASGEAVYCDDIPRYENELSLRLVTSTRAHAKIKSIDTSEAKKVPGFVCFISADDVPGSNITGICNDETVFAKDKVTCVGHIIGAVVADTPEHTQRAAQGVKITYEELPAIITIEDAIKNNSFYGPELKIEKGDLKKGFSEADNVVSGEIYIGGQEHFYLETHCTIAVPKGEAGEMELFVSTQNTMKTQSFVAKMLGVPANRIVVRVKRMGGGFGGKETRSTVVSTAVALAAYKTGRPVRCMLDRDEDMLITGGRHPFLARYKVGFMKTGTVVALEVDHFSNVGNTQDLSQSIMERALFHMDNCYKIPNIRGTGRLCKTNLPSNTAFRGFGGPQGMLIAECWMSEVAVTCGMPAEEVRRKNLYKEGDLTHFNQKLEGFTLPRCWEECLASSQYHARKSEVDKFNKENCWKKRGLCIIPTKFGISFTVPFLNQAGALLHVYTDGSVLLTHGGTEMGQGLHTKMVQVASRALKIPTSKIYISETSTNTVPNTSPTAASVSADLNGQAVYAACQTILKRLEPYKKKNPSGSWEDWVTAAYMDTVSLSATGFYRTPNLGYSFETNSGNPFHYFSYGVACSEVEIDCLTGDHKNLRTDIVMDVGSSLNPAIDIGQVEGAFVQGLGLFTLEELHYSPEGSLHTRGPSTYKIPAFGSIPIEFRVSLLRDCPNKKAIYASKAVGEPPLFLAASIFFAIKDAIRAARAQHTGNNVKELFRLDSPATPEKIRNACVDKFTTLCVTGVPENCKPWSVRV

`COc1cc2cc(-c3cc4cc(O)c(O)cc4oc3=O)c(=O)oc2c(OC)c1O` [ARTEMINORIN C] came in with an IC50 in experiment [1] of 7.71 µM.
Regarding `O=C(O)/C=C/c1ccc(O)c(O)c1` [CAFFEIC ACID], the half-maximal inhibitory concentration (IC50) in experiment [2] stood at 3.06 µM.
`CCOC(=O)/C=C/c1ccc(O)c(O)c1` [ETHYL CAFFEATE] registered a concentration for 50% growth inhibition (GI50) in the experiment on HepG2 of 17.2 µM.
`O=c1cc(-c2ccc(O)c(O)c2)oc2cc(O)cc(O)c12` [LUTEOLIN] had a half-maximal inhibitory concentration (IC50) in experiment [1] of 11.5 µM.
In the experiment with HepG2, `CC(=O)O[C@H]1C(=O)[C@@]2(C)[C@H]([C@H](OC(=O)c3ccccc3)[C@]3(O)C[C@H](OC(=O)[C@H](O)[C@@H](NC(=O)c4ccccc4)c4ccccc4)C(C)=C1C3(C)C)[C@]1(OC(C)=O)CO[C@@H]1C[C@@H]2O` [PACLITAXEL] registered a GI50 of 0.059 µM.
